Results taken from patent US12583835B2, “Crystal form of nitroxoline prodrug, pharmaceutical composition containing same, and preparation method therefor and application thereof” (Jiangsu Yahong Meditech Co., Ltd., priority 2020, dated 2026).

Assays:
[1] = Dynamic vapour sorption (DVS); format: physicochemical
Description: The DVS curves were acquired on DVS Intrinsic of SMS (Surface Measurement Systems). The relative humidity at 25° C. was corrected for the deliquescence points of LiCl, Mg(NO3)2 and KCl. • Test temperature: 25° C. • Sample amount: 10-20 mg • Shielding gas and flow: nitrogen, 200 mL/min • dm/dt: 0.002%/min; • Minimum dm/dt equilibration time: 10 min • Maximum equilibration time: 180 min • RH range: 0% RH-95% RH-0% RH • RH gradient: 10% 6. Polarizing Light Microscope (PLM)
The X-ray powder diffraction (XRPD) pattern of the solid is shown in FIG. 1, and the XRPD diffraction peak data thereof is shown in Table 1 below. […] (onset temperature). […] The PLM results are shown in FIG. 5, which indicate that the solid is irregular crystal particles. This crystal form is defined as crystal form A.

[2] = Stability test of crystal form A; format: physicochemical
Description: The crystal forms obtained in Examples 2-10 were packaged in double-layer PE bags+aluminum foil bags+cardboard barrels, sealed and stored at a temperature of 40° C. and a relative humidity of 75%; a temperature of 25° C. and a relative humidity of 60%; at 5±3° C. for 6 months. The inspection items (appearance, moisture, related substance 1, related substance 2, content) were tested, and the specific test methods were as follows.
• Moisture Meter • Electronic balance 1.2 Reagents • Karl Fischer titrant: analytical grad • Anhydrous methanol: analytical grade 1.3 Detection Method • About 50 mL of methanol was pumped into the titration beaker for pre-titration; • About 1.0 g of the test sample was accurately weighed and put into the titration beaker, stirred to dissolve, and the moisture of the test sample was titrated; • The weight of the test sample added, the concentration of the Karl Fischer titrant and the volume of the Karl Fischer titrant consumed during determination were recorded; the moisture of the second test sample was determined using the same method. 1.4 Calculation Formula
[formula] • V—Volume of Karl Fischer titrant consumed for the test sample, mL; • F—Equivalent mass of water per 1 mL of Karl Fischer titrant, mg/mL; • W—Weighed sample amount of the test sample, g. 2 Related Substance 1 2.1 Chromatographic Conditions: High Performance Liquid Chromatography (HPLC) • Column: Waters XBridge C18 4.6×150 mm, 5 μm • Detector: UV or equivalent detector • Wavelength: 210 nm • Column temperature: 35° C. • Flow rate: 1.0 mL/min • Injection volume: 10 μL • Needle Wash: Acetonitrile • Mobile phase gradient: […]
About 25 mg of the test sample was accurately weighed and put into a 50 mL volumetric flask. The diluent was added to dissolve the substance and dilute the solution to the mark, and the solution was shaken well.
[formula] • AU—the peak area of impurities in the test sample solution; • AT—Total peak area of the test sample solution. • 2) Total impurity (%)=Σ single impurity
• 3 Related Substance 2 (D-isobutyrylproline) • 3.1 Chromatographic Conditions: High Performance Liquid Chromatography (HPLC) • Column: Synergi Hydro RP 4.6×250 mm, 4 μm • Detector: UV or equivalent detector • Wave length: 210 nm • Column temperature: 35° C. • Flow rate: 1.0 mL/min • Injection volume: 5 μL • Needle Wash: Acetonitrile • Mobile phase gradient: […]
About 20 mg of the test sample was accurately weighed and put into a 10 mL volumetric flask. The diluent was added to dissolve the test sample and dilute the solution to the mark, and the solution was shaken well. Two solutions were prepared in parallel and labeled as S1/S2 respectively. • 3.4 Calculation: Only the Peak of Related Substance 2 was Integrated
[formula] [formula] • ARS2—Average peak area of reference solution 2; • ARS1—Average peak area of 5 injections of reference solution 1; • As—Peak area of related substance 2 in the test sample solution; • MRS1—Weighed sample amount of related substance 2 in reference solution 1, mg; • Ms—Weighed sample amount of the test sample in the test sample solution, mg; • MRS2—Weighed sample amount of related substance 2 in reference solution 2, mg; […]

crystal form before and after the DVS test (XRPD) [1]: unchanged | vapor sorption (DVS) ([1]; 25° C./80% RH): 0.17% | Appearance ([2]; 5 ± 3° C., Time 0): Yellow solid | Content ([2]; 5 ± 3° C., Time 0): 101.1% | Moisture ([2]; 5 ± 3° C., Time 0): 0.09% | Related substance 1 5-Nitro-8-hydroxyquinoline ([2]; 5 ± 3° C., Time 0): 0.04% | Related substance 1 Impurity 1 ([2]; 5 ± 3° C., Time 0): 0.27% | Related substance 1 Maximum unknown single impurity ([2]; 5 ± 3° C., Time 0): RRT 1.126: 0.07% | Related substance 1 Total impurities ([2]; 5 ± 3° C., Time 0): 0.53% | Related substance 2 ([2]; 5 ± 3° C., Time 0): 0.06% | Appearance ([2]; 5 ± 3° C., Time 6 M): Yellow solid | Content ([2]; 5 ± 3° C., Time 6 M): 99.6% | Moisture ([2]; 5 ± 3° C., Time 6 M): 0.1% | Related substance 1 Impurity 1 ([2]; 5 ± 3° C., Time 6 M): 0.3% | Related substance 1 Impurity 2 ([2]; 5 ± 3° C., Time 6 M): <0.01% | Related substance 1 Maximum unknown single impurity ([2]; 5 ± 3° C., Time 6 M): RRT 1.121: 0.07% | Related substance 1 Total impurities ([2]; 5 ± 3° C., Time 6 M): 0.5% | Related substance 2 ([2]; 5 ± 3° C., Time 6 M): 0.03% | Appearance ([2]; 25° C., 60% RH, Time 0): Yellow solid | Content ([2]; 25° C., 60% RH, Time 0): 101.1% | Moisture ([2]; 25° C., 60% RH, Time 0): 0.09% | Related substance 1 Impurity 1 ([2]; 25° C., 60% RH, Time 0): 0.27% | Related substance 1 Maximum unknown single impurity ([2]; 25° C., 60% RH, Time 0): RRT 1.126: 0.07% | Related substance 1 Total impurities ([2]; 25° C., 60% RH, Time 0): 0.53% | Related substance 2 ([2]; 25° C., 60% RH, Time 0): 0.06% | Appearance ([2]; 25° C., 60% RH, Time 3 M): Yellow solid | Content ([2]; 25° C., 60% RH, Time 3 M): 99.3% | Moisture ([2]; 25° C., 60% RH, Time 3 M): 0.07% | Related substance 1 Impurity 1 ([2]; 25° C., 60% RH, Time 3 M): 0.32% | Related substance 1 Impurity 2 ([2]; 25° C., 60% RH, Time 3 M): <0.01% | Related substance 1 Maximum unknown single impurity ([2]; 25° C., 60% RH, Time 3 M): RRT 1.123: 0.06% | Related substance 1 Total impurities ([2]; 25° C., 60% RH, Time 3 M): 0.51% | Related substance 2 ([2]; 25° C., 60% RH, Time 3 M): 0.04% | Appearance ([2]; 25° C., 60% RH, Time 6 M): Yellow solid | Content ([2]; 25° C., 60% RH, Time 6 M): 99.8% | Moisture ([2]; 25° C., 60% RH, Time 6 M): <0.1% | Related substance 1 Impurity 1 ([2]; 25° C., 60% RH, Time 6 M): 0.3% | Related substance 1 Impurity 2 ([2]; 25° C., 60% RH, Time 6 M): <0.01% | Related substance 1 Maximum unknown single impurity ([2]; 25° C., 60% RH, Time 6 M): RRT 1.121: 0.06% | Related substance 1 Total impurities ([2]; 25° C., 60% RH, Time 6 M): 0.5% | Related substance 2 ([2]; 25° C., 60% RH, Time 6 M): 0.04% | Appearance ([2]; 40° C., 75% RH, Time 0): Yellow solid | Content ([2]; 40° C., 75% RH, Time 0): 101.1% | Moisture ([2]; 40° C., 75% RH, Time 0): 0.09% | Related substance 1 5-Nitro-8-hydroxyquinoline ([2]; 40° C., 75% RH, Time 0): 0.04% | Related substance 1 Impurity 1 ([2]; 40° C., 75% RH, Time 0): 0.27% | Related substance 1 Maximum unknown single impurity ([2]; 40° C., 75% RH, Time 0): RRT 1.126: 0.07% | Related substance 1 Total impurities ([2]; 40° C., 75% RH, Time 0): 0.53% | Related substance 2 ([2]; 40° C., 75% RH, Time 0): 0.06% | Appearance ([2]; 40° C., 75% RH, Time 1 M): Yellow solid | Content ([2]; 40° C., 75% RH, Time 1 M): 101.1% | Moisture ([2]; 40° C., 75% RH, Time 1 M): 0.06% | Related substance 1 5-Nitro-8-hydroxyquinoline ([2]; 40° C., 75% RH, Time 1 M): 0.02% | Related substance 1 Impurity 1 ([2]; 40° C., 75% RH, Time 1 M): 0.27% | Related substance 1 Maximum unknown single impurity ([2]; 40° C., 75% RH, Time 1 M): RRT 1.125: 0.06% | Related substance 1 Total impurities ([2]; 40° C., 75% RH, Time 1 M): 0.52% | Related substance 2 ([2]; 40° C., 75% RH, Time 1 M): 0.05% | Appearance ([2]; 40° C., 75% RH, Time 2 M): Yellow solid | Content ([2]; 40° C., 75% RH, Time 2 M): 98.8% | Moisture ([2]; 40° C., 75% RH, Time 2 M): 0.09% | Related substance 1 Impurity 1 ([2]; 40° C., 75% RH, Time 2 M): 0.27% | Related substance 1 Impurity 2 ([2]; 40° C., 75% RH, Time 2 M): 0.01% | Related substance 1 Maximum unknown single impurity ([2]; 40° C., 75% RH, Time 2 M): RRT 1.132: 0.05% | Related substance 1 Total impurities ([2]; 40° C., 75% RH, Time 2 M): 0.44% | Related substance 2 ([2]; 40° C., 75% RH, Time 2 M): 0.06% | Appearance ([2]; 40° C., 75% RH, Time 3 M): Yellow solid | Content ([2]; 40° C., 75% RH, Time 3 M): 99.3% | Moisture ([2]; 40° C., 75% RH, Time 3 M): 0.06% | Related substance 1 Impurity 1 ([2]; 40° C., 75% RH, Time 3 M): 0.32% | Related substance 1 Maximum unknown single impurity ([2]; 40° C., 75% RH, Time 3 M): RRT 1.123: 0.05% | Related substance 1 Total impurities ([2]; 40° C., 75% RH, Time 3 M): 0.49% | Related substance 2 ([2]; 40° C., 75% RH, Time 3 M): 0.10% | Appearance ([2]; 40° C., 75% RH, Time 6 M): Yellow solid | Content ([2]; 40° C., 75% RH, Time 6 M): 99.7% | Moisture ([2]; 40° C., 75% RH, Time 6 M): <0.1% | Related substance 1 5-Nitro-8-hydroxyquinoline ([2]; 40° C., 75% RH, Time 6 M): <0.1% | Related substance 1 Impurity 1 ([2]; 40° C., 75% RH, Time 6 M): 0.3% | Related substance 1 Impurity 2 ([2]; 40° C., 75% RH, Time 6 M): <0.01% | Related substance 1 Maximum unknown single impurity ([2]; 40° C., 75% RH, Time 6 M): RRT 0.896: 0.04% | Related substance 1 Total impurities ([2]; 40° C., 75% RH, Time 6 M): 0.6% | Related substance 2 ([2]; 40° C., 75% RH, Time 6 M): 0.15%
SMILES: CC(C)C(=O)N1CCC[C@H]1C(=O)OCOc1ccc([N+](=O)[O-])c2cccnc12 [crystal form A, ((5-nitroquinolin-8-yl)oxy)methyl-isobutyryl-L-prolinate]
